Measured values taken from US6335350B1, “Acetamide and substituted acetamide-containing thiourea inhibitors of herpes viruses” (American Home Products Corporation, priority 1998, dated 2002).
Values after ≈ are worked out from the molar mass of the structure shown.

Key:
HSV-1 = assay: HSV Antiviral (ELISA) Assay; format: cell-based, herpes simplex virus type 1; details: Vero cells, HSV-1; for IC50: Human alphaherpesvirus 1, Vero, read-out: IC50 Ug/ml HSV
Procedure, shortened: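 Vero cells in DMEM/2% FBS pretreated with compound 30 min before HSV-1 infection (MOI 0.006), then ~24 h at 37 °C. Viral gD detected by ELISA with β-galactosidase secondary and 4-methylumbelliferyl-galactoside (ex 365/em 450 nm); IC50 from fluorescence versus untreated infected cells.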

HCMV wild-type = assay: HCMV yield assay; format: cell-based, human cytomegalovirus; details: human foreskin fibroblasts; for IC50: Human betaherpesvirus 5, Fibroblast, read-out: IC50 Ug/ml HCMV
Procedure, shortened: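 HCMV wild-type infected human foreskin fibroblast monolayers at MOI typically 0.2 with varying compound concentrations; virus yield harvested at 3 days post-infection and titered on fibroblasts without inhibitor, plaques counted at 2 weeks. IC50 or IC90 = compound amount reducing yield titer by 50% or 90%.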

VZV strain Ellen = assay: VZV Antiviral (ELISA) Assay; format: cell-based, varicella-zoster virus; details: human foreskin fibroblast cells; for IC50 / inhibition at 10 µg/mL: Human alphaherpesvirus 3, Fibroblast; for IC50: read-out: IC50 Ug/ml VZV; for inhibition at 10 µg/mL: read-out: % inhibition 10 ug/ml VZV, 10 ug/ml
Procedure, shortened: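 Cell-based VZV (Ellen) spread assay in HFF, 3-day compound exposure in 2% FBS medium. Viral antigen quantified by fluorescent β-galactosidase ELISA; IC50 from inhibition of signal.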

Molecule	IC50 (HSV-1)	IC50 (HCMV wild-type)	IC50 (VZV strain Ellen)	inhibition at 10 µg/mL (VZV strain Ellen)	IC50 Ug/ml HSV (HSV-1)	IC50 Ug/ml HCMV (HCMV wild-type)	% inhibition 10 ug/ml VZV (VZV strain Ellen; 10 ug/ml)	IC50 Ug/ml VZV (VZV strain Ellen)
COc1ccc(NC(=S)Nc2ccc(NC(C)=O)cc2)cc1 [Example 104, N-{4-[3-(4-Methoxy-phenyl)-thioureido]-phenyl}-acetamide]	> 50 µg/mL	> 50 µg/mL	> 10 µg/mL	8%				
CC(=O)Nc1ccc(NC(=S)Nc2cccc(Cl)c2)cc1 [Example 816, N-{4-[3-(3-Chloro-phenyl)-thioureido]-phenyl}-acetamide]	20 µg/mL (≈ 62.5 µM)	25 µg/mL (≈ 78.2 µM)	> 10 µg/mL	30%				
COc1cc(OCC(N)=O)c(Cl)cc1NC(=S)Nc1ccc(NC(C)=O)cc1 [Example 838, 2-{4-[3-(4-Acetylamino-phenyl)-thioureido]-2-chloro-5-methoxy-phenoxy}-acetamide]	> 50 µg/mL	> 10 µg/mL	> 10 µg/mL	20%				
COc1cc(OC)c(NC(=S)Nc2ccc(NC(C)=O)cc2C#N)cc1Cl [Example 383, N-{4-[3-(5-Chloro-2,4-dimethoxy-phenyl)-thioureido]-3-cyano-phenyl}-acetamide]	> 10 µg/mL	> 10 µg/mL	> 10 µg/mL	38%				
N-{4-[3-(4-Acetylamino-phenyl)-thioureido]-2-chloro-phenyl}-2-thiomorpholin-4-yl-acetamide [Example 405]					>10 Ug/ml	>10 Ug/ml	83%	13 Ug/ml
COc1cc(OC)c(NC(=S)Nc2cc(OC)c(NC(C)=O)cc2OC)cc1Cl [Example 261, N-{4-[3-(5-Chloro-2,4-dimethoxy-phenyl)-thioureido]-2,5-dimethoxy-phenyl}-acetamide]	> 10 µg/mL	> 10 µg/mL	> 10 µg/mL	1%				
CC(=O)Nc1ccc(NC(=S)Nc2ccc(N(C)C3CCCC3)c(Cl)c2)cc1 [Example 844, N-(4-{3-[3-Chloro-4-(cyclopentyl-methyl-amino)-phenyl]-thioureido}-phenyl)-acetamide]	15 µg/mL (≈ 36 µM)	0.8 µg/mL (≈ 1.92 µM)	> 10 µg/mL	32%				
COc1cc(OC)c(NC(=S)Nc2ccc(NC(C)=O)cc2C)cc1Cl [Example 297, N-{4-[3-(5-Chloro-2,4-dimethoxy-phenyl)-thioureido]-3-methyl-phenyl}-acetamide]	1 µg/mL (≈ 2.54 µM)	> 10 µg/mL	> 10 µg/mL	23%				
CC(=O)Nc1ccc(NC(=S)Nc2ccc(NCCN(C)C)c(Cl)c2)cc1 [Example 316, N-(4-{3-[3-Chloro-4-(2-dimethylamino-ethylamino)-phenyl]-thioureido}-phenyl)-acetamide]	30 µg/mL (≈ 73.9 µM)	> 50 µg/mL	> 10 µg/mL	56%				
CC(=O)Nc1ccc(NC(=S)Nc2cc(Cl)ccc2C)cc1 [Example 890, N-{4-[3-(5-Chloro-2-methyl-phenyl)-thioureido]-phenyl}-acetamide]	20 µg/mL (≈ 59.9 µM)	35 µg/mL (≈ 105 µM)	> 10 µg/mL	20%				
CC(=O)Nc1ccc(NC(=S)Nc2ccc(NC3CCCCC3)c(Cl)c2)cc1 [Example 299, N-{4-[3-(3-Chloro-4-cyclohexylamino-phenyl)-thioureido]-phenyl}-acetamide]	> 10 µg/mL	6 µg/mL (≈ 14.4 µM)	3.8 µg/mL (≈ 9.11 µM)	72%				
COc1cc(NC(=S)Nc2ccc(NC(C)=O)cc2)c(OC)cc1Cl [Example 110, N-{4-[3-(4-Chloro-2,5-dimethoxy-phenyl)-thioureido]-phenyl}-acetamide]	12 µg/mL (≈ 31.6 µM)	30 µg/mL (≈ 79 µM)	> 10 µg/mL	25%				
CC(=O)Nc1ccc(NC(=S)Nc2cc(Cl)c(OCC(N)=O)c(Cl)c2)cc1 [Example 882, 2-{4-[3-(4-Acetylamino-phenyl)-thioureido]-2,6-dichloro-phenoxy}-acetamide]	> 50 µg/mL	> 50 µg/mL	> 10 µg/mL	15%				
CCCN(CCC)c1ccc(NC(=S)Nc2ccc(NC(C)=O)cc2)cc1Cl [Example 272, N-{4-[3-(3-Chloro-4-dipropylamino-phenyl)-thioureido]-phenyl}-acetamide]	> 50 µg/mL	> 10 µg/mL	> 10 µg/mL	50%				
CC(=O)Nc1ccc(NC(=S)Nc2ccc(Cl)c(Cl)c2)cc1 [Example 901, N-{4-[3-(3,4-Dichloro-phenyl)-thioureido]-phenyl}-acetamide]	1.5 µg/mL (≈ 4.23 µM)	2.5 µg/mL (≈ 7.06 µM)	> 10 µg/mL	1%				
COc1cc(OCCO)c(NC(=S)Nc2ccc(NC(C)=O)cc2)cc1Cl [Example 214, N-(4-{3-[5-Chloro-2-(2-hydroxy-ethoxy)-4-methoxy-phenyl]-thioureido}-phenyl)-acetamide]	20 µg/mL (≈ 48.8 µM)	> 10 µg/mL	> 10 µg/mL	20%				
COc1cc(OC)c(NC(=S)Nc2ccc(NC(C)=O)c(C(=O)O)c2)cc1Cl [Example 337, 2-Acetylamino-5-[3-(5-chloro-2,4-dimethoxy-phenyl)-thioureido]-benzoic acid]	> 50 µg/mL	> 50 µg/mL	> 10 µg/mL	31%				
COc1cc(OC)c(NC(=S)Nc2ccc(NC(C)=O)c(C)c2)cc1Cl [Example 309, N-{4-[3-(5-Chloro-2,4-dimethoxy-phenyl)-thioureido]-2-methyl-phenyl}-acetamide]	8 µg/mL (≈ 20.3 µM)	25 µg/mL (≈ 63.5 µM)	> 10 µg/mL	22%				
CC(=O)Nc1ccc(NC(=S)Nc2ccc(Oc3cc(Cl)c(Cl)cc3S(=O)(=O)O)c(Cl)c2)cc1 [Example 263, 2-{4-[3-(4-Acetylamino-phenyl)-thioureido]-2-chloro-phenoxy}-4,5-dichloro-benzensulfonic acid]	> 50 µg/mL	> 50 µg/mL	> 10 µg/mL	20%				
COc1cc(OC)c(NC(=S)Nc2ccc(NC(C)=O)c(OC)c2)cc1Cl [Example 274, N-{4-[3-(5-Chloro-2,4-dimethoxy-phenyl)-thioureido]-2-methoxy-phenyl}-acetamide]	5 µg/mL (≈ 12.2 µM)	> 50 µg/mL	> 10 µg/mL	15%				
COc1ccc(Cl)cc1NC(=S)Nc1ccc(NC(C)=O)cc1 [Example 107, N-{4-[3-(5-Chloro-2-methoxy-phenyl)-thioureido]-phenyl}-acetamide]	> 50 µg/mL	> 50 µg/mL	> 10 µg/mL	20%				
CC(=O)Nc1ccc(NC(=S)Nc2cc(C(F)(F)F)ccc2Cl)cc1 [Example 111, N-{4-[3-(2-Chloro-5-trifluoromethyl-phenyl)-thioureido]-phenyl}-acetamide]	15 µg/mL (≈ 38.7 µM)	12 µg/mL (≈ 30.9 µM)	> 10 µg/mL	51%				
COc1cc(O)c(Cl)cc1NC(=S)Nc1ccc(NC(C)=O)cc1 [Example 223, N-{4-[3-(5-Chloro-4-hydroxy-2-methoxy-phenyl)-thioureido]-phenyl}-acetamide]	14 µg/mL (≈ 38.3 µM)	> 50 µg/mL	> 10 µg/mL	24%				
CC(=O)Nc1ccc(NC(=S)Nc2cc(Cl)c(C)c(Cl)c2)cc1 [Example 892, N-{4-[3-(3,5-Dichloro-4-methyl-phenyl)-thioureido]-phenyl}-acetamide]	10 µg/mL (≈ 27.2 µM)	1 µg/mL (≈ 2.72 µM)	> 10 µg/mL	25%				
COc1cc(OCC#N)c(NC(=S)Nc2ccc(NC(C)=O)cc2)cc1Cl [Example 213, N-(4-{3-[5-Chloro-4-methoxy-2-(2-nitrilo-ethoxy)-phenyl]-thioureido}-phenyl)-acetamide]	30 µg/mL (≈ 74.1 µM)	15 µg/mL (≈ 37 µM)	> 10 µg/mL	20%				
CC(=O)Nc1ccc(NC(=S)Nc2cc(Cl)c(OCC(=O)OC(C)(C)C)c(Cl)c2)cc1 [Example 887, {4-[3-(4-Acetylamino-phenyl)-thioureido]-2,6-dichloro-phenoxy}-acetic acid tert-butyl ester]	45 µg/mL (≈ 92.9 µM)	> 10 µg/mL	> 10 µg/mL	38%				
COc1ccc(NC(=S)Nc2ccc(NC(C)=O)cc2)cc1C(F)(F)F [Example 290, N-{4-[3-(4-Methoxy-3-trifluoromethyl-phenyl)-thioureido]-phenyl}-acetamide]	> 50 µg/mL	5 µg/mL (≈ 13 µM)	> 10 µg/mL	1%				
COc1cc(OC)c(NC(=S)Nc2ccc(NC(C)=O)cc2)cc1I [Example 197, N-{4-[3-(5-Iodo-2,4-dimethoxy-phenyl)-thioureido]-phenyl}-acetamide]	6 µg/mL (≈ 12.7 µM)	> 10 µg/mL	> 15 µg/mL	59%				
CC(=O)Nc1ccc(NC(=S)Nc2cc(Cl)c(Oc3ccccc3)c(Cl)c2)cc1 [Example 885, N-{4-[3-(3,5-Dichloro-4-phenoxy-phenyl)-thioureido]-phenyl}-acetamide]	15 µg/mL (≈ 33.6 µM)	> 10 µg/mL	> 10 µg/mL	45%				
